Data on two compounds can be found in US12428428B2, “Tricyclic tetrahydroisoquinoline derivative, preparation method therefor and application thereof in medicine” (JIANGSU HENGRUI MEDICINE CO., LTD., priority 2020, dated 2025).

The target of the data set is CYP3A4 (Homo sapiens (Human), UniProt P08684). The data set is described as follows: Time-dependent inhibition of site of metabolism of midazolam in human liver microsome CYP3A4. The format is in vitro ADME. The conditions noted are these: midazolam substrate; for IC50 shift at 30 min: human, human liver microsomes, probe midazolam (3 µM). As for the experimental part:
• 1. Phosphate buffer (20×PBS, purchased from Sangon); • 2. NADPH (ACROS, A2646-71-1); • 3. Human liver microsome (Corning Gentest, Cat No, 452161, Lot No. 9050002, Donor, 36); • 4. ABI QTrap 4000 LC-MS System (AB Sciex); • 5. ZORBAX Extend-C18, 3×50 mm, 3.5 μm (Agilent, USA); • 6. CYP probe substrate (midazolam, TRC, M343000/3 μM) and positive control inhibitor (verapamil, Adamas Reagent Co, Ltd, Cat No. 25904A).
A 100 mM PBS buffer was prepared. A 0.25 mg/mL microsome solution, a 7.5 mM MgCl2 and a 5 mM NADPH solution were prepared using the buffer. A 30 mM stock solution was diluted with DMSO to obtain 30 mM, 10 mM, 3 mM, 1 mM, 0.3 mM, 0.1 mM, 0.03 mM and 0 mM serial solutions I, which were further diluted 200-fold with phosphate buffer (PBS) to obtain serial test solutions II (150, 50, 15, 5, 1.5, 0.5, 0.15 and 0 μM). A midazolam working solution was diluted with PBS to 15 μM.
The serial test solutions prepared above were well mixed by shaking and aliquoted in 20 μL portions into corresponding reaction plates (+NADPH, T0 and −NADPH groups were set). Three parallel tests were set. 40 μL of the liver microsome working solution was added to each 96-well plate. 20 μL of a corresponding substrate solution was added to the T0 plate. 20 μL of NADPH was added to the TO plate and +NADPH group. A timer was started, and the plates were incubated in a water bath at 37° C. After 30 min of incubation, the TO plate was taken out, and the reaction was terminated with 250 μL of an internal standard-containing ACN solution. The +NADPH group was supplemented with 20 μL of the corresponding substrate solution, and the −NADPH group was supplemented with 20 μL of the corresponding substrate solution and […]. A timer was started, and the plates were incubated in a water bath at 37° C. After 30 min of incubation, the plates were taken out, and the reactions were terminated with 250 μL of an internal standard-containing ACN solution. Then the plates were shaken on a shaker at 800 rpm for 10 min and centrifuged at 4000 rpm for 15 min. 100 μL of the supernatant and 80 μL of ultrapure water were well mixed and subjected to LC-MS/MS analysis.
The IC50 values of the drugs for the site of metabolism of midazolam in CYP3A4 were calculated using Graphpad Prism and are shown in Table 7.

Setting [1] is: 30 min pre-incubation with NADPH.

SMILES strings stand for the structures.

CYP3A4, sequence (P08684 whole entry): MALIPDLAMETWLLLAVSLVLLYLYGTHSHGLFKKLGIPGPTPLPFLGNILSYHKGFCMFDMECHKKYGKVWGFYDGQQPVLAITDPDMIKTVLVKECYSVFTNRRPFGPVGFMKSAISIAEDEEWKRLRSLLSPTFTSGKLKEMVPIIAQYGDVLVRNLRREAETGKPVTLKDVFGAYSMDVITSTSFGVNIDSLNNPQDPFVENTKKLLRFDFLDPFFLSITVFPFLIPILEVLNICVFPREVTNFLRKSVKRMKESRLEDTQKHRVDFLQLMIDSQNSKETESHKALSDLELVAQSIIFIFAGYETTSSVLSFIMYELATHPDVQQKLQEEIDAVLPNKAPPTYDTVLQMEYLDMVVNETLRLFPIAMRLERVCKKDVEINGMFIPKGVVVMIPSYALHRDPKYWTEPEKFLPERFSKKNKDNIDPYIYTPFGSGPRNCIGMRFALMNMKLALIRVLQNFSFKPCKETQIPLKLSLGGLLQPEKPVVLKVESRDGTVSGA

For orientation: IC50 means the concentration needed to halve the response being measured. A low value points to inhibition by little substance. Regarding `[2H]C1([2H])Oc2cc3c(cc2O1)[C@@H](c1ccc(N[C@H]2CCN(CCCF)C2)cn1)N(CC(F)(F)CO)[C@H](C)C3` [Example 12, 2,2-Difluoro-3-((5S,7R)-5-(5-(((S)-1-(3-fluoropropyl)pyrrolidin-3-yl)amino)pyridin-2-yl)-7-methyl-7,8-dihydro-[1,3]dioxolo[4,5-g]isoquinolin-6(5H)-yl-2,2-d2)propan-1-ol], the IC50 shift at 30 min is 0.9. In addition, the midpoint of inhibition under setting [1], the IC50, lay at 9.16 µM. Further, half-maximal inhibition (pre-incubation without NADPH) (IC50) was put at 10.2 µM.
On to `C[C@@H]1Cc2cc3c(cc2[C@@H](c2ccc(N[C@H]4CCN(CCCF)C4)cn2)N1CC(F)(F)CO)OCO3` [Example 4, 2,2-Difluoro-3-((5S,7R)-5-(5-(((S)-1-(3-fluoropropyl)pyrrolidin-3-yl)amino)pyridin-2-yl)-7-methyl-7,8-dihydro-[1,3]dioxolo[4,5-g]isoquinolin-6(5H)-yl)propan-1-ol], for which the IC50 shift at 30 min came to 1. The same compound came in with an IC50 under setting [1] of 2.43 µM. This compound also came in with an IC50 (pre-incubation without NADPH) of 2.47 µM.
